In patent US20250164397A1, “SULPHIDE SENSOR” (Oxford University Innovation Limited, priority 2021, published 2025):
Values belong to the compound of their own block, whether it stands above or below them.

What was measured:
[1] = cited from earlier work
[2] = Fluorescence emission change on addition of NaCl, NaBr, NaI, NaHS in pH 7.4 HEPES buffer (any anion); assay type: binding
Experimental: (§1) Fluorescence titration experiments were performed using a Horiba Duetta at 293 K. The host molecules (XB1-3, and HB1-3) were dissolved in 10 mM HEPES aqueous buffer solution at pH 7.4 at a concentration of 10 μM. Na salts of the appropriate anion were dissolved in the solution of the host molecule to obtain a concentration. Aliquots of the anion solution were added to 1.00 mL of the host solution in a quartz cuvette, where the sample was then thoroughly mixed before fluorescence spectra were recorded. Association constants were obtained by global analysis using BindFit, using a host-guest 1:1 binding model.
(§2) The fluorescence emission, following excitation at 342 nm, was monitored upon the addition of sodium hydrosulfide and halide salts.
(§3) With XB2, both Br^− and I^− were sensed (FIG. 11), with the heavier halide also being detected by XB3H^+ (FIG. 13).

[3] = Fluorescence titration with NaBr, Bindfit 1:1 analysis, pH 7.4 10 mM aqueous HEPES buffer; assay type: binding; design: key to Association constant Ka Br^−: NB: No binding observed; details: for Association constant Ka Br^−: 10 μM receptors in 10 mM aqueous HEPES buffer solution, pH = 7.4, 1:1 host:guest, errors in brackets; for fluorescence response to Br^−: excitation at 342 nm, pH 7.4 HEPES
Experimental: as §1
(§4) The anion sensing properties were investigated in pH 7.4 aqueous HEPES buffer solution using fluorescence spectroscopy. At this pH value the protonated forms XB3H^+ and HB3H^+ are the dominant receptor species present in the aqueous solution. The amine pKa of XB3 (10.29) and HB3 (9.98) were experimentally determined by monitoring changes in fluorescence with pH. (FIG. 16).
as §2, §3
(§5) Bindfit analysis^23,24 of the titration data for XB and HB receptors was used to determine 1:1 host: guest stoichiometric anion association constants, as shown below in Table 1.

[4] = Fluorescence titration with NaHS, Bindfit 1:1 analysis and LoD, pH 7.4 10 mM aqueous HEPES buffer; assay type: binding; design: key to Association constant Ka HS^− / LoD, Limit of Detection for HS−: NB: No binding observed; details: for Association constant Ka HS^−: 10 μM receptors in 10 mM aqueous HEPES buffer solution, pH = 7.4, 1:1 host:guest, errors in brackets; for LoD, Limit of Detection for HS−: 10 μM receptors in 10 mM aqueous HEPES buffer, pH 7.4
Experimental: as §1, §4
The fluorescence emission, following excitation at 342 nm, was monitored upon the addition of sodium hydrosulfide and halide salts. […]
as §5

[5] = Fluorescence titration with NaCl, Bindfit 1:1 analysis, pH 7.4 10 mM aqueous HEPES buffer; assay type: binding; design: key to Association constant Ka Cl^−: NB: No binding observed; details: for Association constant Ka Cl^−: 10 μM receptors in 10 mM aqueous HEPES buffer solution, pH = 7.4, 1:1 host:guest, errors in brackets; for fluorescence response to Cl^−: excitation at 342 nm, pH 7.4 HEPES
Experimental: as §1, §4, §2, §3, §5

[6] = Fluorescence titration with NaI, Bindfit 1:1 analysis, pH 7.4 10 mM aqueous HEPES buffer; assay type: binding; design: key to Association constant Ka I^−: NB: No binding observed; details: for Association constant Ka I^−: 10 μM receptors in 10 mM aqueous HEPES buffer solution, pH = 7.4, 1:1 host:guest, errors in brackets; for fluorescence response to I^−: excitation at 342 nm, pH 7.4 HEPES
Experimental: as §1, §4, §2, §3, §5

[7] = pKa determined by monitoring changes in fluorescence with pH; assay type: physicochemical; details: for pKa1 / pKa2: emission intensity change with changing pH; for amine pKa: monitoring changes in fluorescence with pH
Excerpt: FIG. 16. XB3: a) XB3 emission intensity change with decreasing pH; b) Emission intensity change for select wavelengths with changing pH; pKa1=4.07 (±0.01), pKa2=10.29 (±0.01). HB3: a) HB3 emission intensity change with decreasing pH; b) Emission intensity change for select wavelengths with changing pH; pKa1=5.91 (±0.07), pKa2=9.98 (±0.01).
as §4

[8] = Fluorescence response of BODIPY receptors in H2O/30% ACN upon titration with various anions; assay type: binding; details: 70% water/30% acetonitrile
Excerpt: (§6) Any observed fluorescence quenching in water could be readily circumvented by addition of a small amount of organic co-solvent. Preliminary solution-phase fluorescence sensing studies of both receptors were thus carried out in 70% water/30% acetonitrile.

Water solubility = assay type: physicochemical
[9] = Electrospray mass spectrometry monitoring for reaction with excess HS^−; assay type: physicochemical; details: 10 μM in 10 mM HEPES aqueous buffer (7.4 pH), excess equivalents of HS^−
Excerpt: (§7) However, the increase in binding strength comes at the expense of a diminished degree of selectivity for HS^− as XB2 also binds Br^− and in particular I^− strongly.

[10] = Fluorescence titration of buffered receptor against NaOH; details: buffered 10 μM receptor
Excerpt: as §7

[11] = Fluorescence titration of XB4 with NaCl in unbuffered water, BindFit; assay type: binding; design: key: N.B.: No Binding; details: unbuffered water at 298 K; errors in parentheses
Experimental: (§8) Fluorescence titrations of XB4 were carried out with chloride, bromide, iodide and hydrosulfide.
(§9) BindFit analysis for each anion to determine binding isotherms (FIG. 20), and 1:1 stoichiometric association constants, shown in Table 2, was also conducted for XB4.

[12] = Fluorescence titration of XB4 with NaI in unbuffered water, BindFit; assay type: binding; details: unbuffered water at 298 K
Experimental: as §8, §9

[13] = Fluorescence titration of XB4 with NaBr in unbuffered water, BindFit; assay type: binding; details: unbuffered water at 298 K
Experimental: as §8, §9

[14] = Fluorescence titration of XB4 with NaSH in unbuffered water, BindFit; assay type: binding; details: unbuffered water at 298 K
Experimental: as §8, §9

[15] = Solution-phase fluorescence sensing of BODIPY receptors in 70% water/30% acetonitrile; assay type: binding
Excerpt: as §6

[16] = excitation at 342 nm, pH 7.4 HEPES

SMILES: S [Compound H2S, hydrogen sulphide]
pKa [1]: 7.0

SMILES: COCCOCCOCCOc1cc(COc2ccc3cc(-n4cc(-c5cncc(-c6cn(-c7cc8ccc(OCc9cc(OCCOCCOCCOC)c(OCCOCCOCCOC)c(OCCOCCOCCOC)c9)cc8oc7=O)nn6)c5)nn4)c(=O)oc3c2)cc(OCCOCCOCCOC)c1OCCOCCOCCOC [HB1, reference compound]
fluorescent response to any anion [2]: only minor fluorescence perturbations
Association constant Ka Br^− [3]: NB
Association constant Ka HS^− [4]: NB
LoD, Limit of Detection for HS− [4]: NB
Association constant Ka Cl^− [5]: NB
Association constant Ka I^− [6]: NB

pKa1 [7]: 5.91 (±0.07)
pKa2 [7]: 9.98 (±0.01)
amine pKa [7]: 9.98
SMILES: COCCOCCOCCOc1cc(COc2ccc3cc(-n4cc(CNCc5cn(-c6cc7ccc(OCc8cc(OCCOCCOCCOC)c(OCCOCCOCCOC)c(OCCOCCOCCOC)c8)cc7oc6=O)nn5)nn4)c(=O)oc3c2)cc(OCCOCCOCCOC)c1OCCOCCOCCOC [HB3, reference compound]
fluorescent response to any anion [2]: no fluorescent response to any anion
Association constant Ka Br^− [3]: NB
Association constant Ka HS^− [4]: NB
LoD, Limit of Detection for HS− [4]: NB
Association constant Ka Cl^− [5]: NB
Association constant Ka I^− [6]: NB

response for all anions, in particular HS^−, compared with XB-BDP-PEG [8]: significantly diminished
water solubility (Water solubility): generally water soluble
SMILES: COCCOCCOCCOc1cc(COC(=O)c2cc(-n3cc(C4=C5C(C)=CC(C)=[N+]5[B-](F)(F)n5c(C)cc(C)c54)nn3)cc(-n3cc(C4=C5C(C)=CC(C)=[N+]5[B-](F)(F)n5c(C)cc(C)c54)nn3)c2)cc(OCCOCCOCCOC)c1OCCOCCOCCOC [HB-BDP-PEG, reference compound]

reaction with HS^− (electrospray mass spectrometry) [9]: no evidence of reaction was observed
SMILES: COCCOCCOCCOc1cc(COc2ccc3cc(-n4nnc(-c5cncc(-c6nnn(-c7cc8ccc(OCc9cc(OCCOCCOCCOC)c(OCCOCCOCCOC)c(OCCOCCOCCOC)c9)cc8oc7=O)c6I)c5)c4I)c(=O)oc3c2)cc(OCCOCCOCCOC)c1OCCOCCOCCOC [XB1]
Association constant Ka Br^− [3]: NB
fluorescence response to Br^− [3]: no intensity diminutions
Association constant Ka HS^− [4]: 16500 (1600) M^−1
fluorescence intensity quenched ([4]; 10 equivalents of HS^−, excitation at 342 nm, pH 7.4 HEPES): 60%
Association constant Ka Cl^− [5]: NB
fluorescence response to Cl^− [5]: no intensity diminutions
Association constant Ka I^− [6]: NB
fluorescence response to I^− [6]: no intensity diminutions

SMILES: COCCOCCOCCOc1cc(COc2ccc3cc(-n4nnc(-c5cc(-c6nnn(-c7cc8ccc(OCc9cc(OCCOCCOCCOC)c(OCCOCCOCCOC)c(OCCOCCOCCOC)c9)cc8oc7=O)c6I)c[n+](C)c5)c4I)c(=O)oc3c2)cc(OCCOCCOCCOC)c1OCCOCCOCCOC.O=S(=O)([O-])C(F)(F)F [XB2]
Association constant Ka Br^− [3]: 60800 M⁻¹
fluorescence response to Br^− [3]: sensed
Association constant Ka HS^− [4]: 158000 (31000) M^−1
quenching on addition of HS^− [4, 16]: 45%
Association constant Ka Cl^− [5]: NB
fluorescence response to Cl^− [5]: no change was observed
Association constant Ka I^− [6]: 103000 (24000) M^−1
fluorescence response to I^− [6]: sensed

change in fluorescence on titration against NaOH [10]: no change in fluorescence
pKa1 [7]: 4.07 (±0.01)
pKa2 [7]: 10.29 (±0.01)
amine pKa [7]: 10.29
SMILES: COCCOCCOCCOc1cc(COc2ccc3cc(-n4nnc(CNCc5nnn(-c6cc7ccc(OCc8cc(OCCOCCOCCOC)c(OCCOCCOCCOC)c(OCCOCCOCCOC)c8)cc7oc6=O)c5I)c4I)c(=O)oc3c2)cc(OCCOCCOCCOC)c1OCCOCCOCCOC [XB3]
Association constant Ka Br^− [3]: NB
Association constant Ka HS^− [4]: 5600 (530) M^−1
LoD, Limit of Detection for HS− ([4]; listed as XB3H^+): 24.6 µM
quenching on addition of HS^− [4, 16]: 38%
Association constant Ka Cl^− [5]: NB
fluorescence response to Cl^− [5]: no change was observed
Association constant Ka I^− [6]: 46000 (14000) M^−1
fluorescence response to I^− [6]: detected

SMILES: COCCOCCOCCN(CCCOc1ccc2cc(-n3nnc(CNCc4nnn(-c5cc6ccc(OCCCN(CCOCCOCCOC)CCOCCOCCOC)cc6oc5=O)c4I)c3I)c(=O)oc2c1)CCOCCOCCOC [XB4]
Association constant Ka Cl^− [11]: N.B.
coumarin fluorescence response to iodide [12]: switching off
Association constant Ka I^− ([12]; errors in parentheses): >10^5 M^−1
coumarin fluorescence response to bromide [13]: switching off
Association constant Ka Br^− ([13]; errors in parentheses): >10^5 M^−1
coumarin fluorescence response to hydrosulfide [14]: switching off
Association constant Ka HS^− ([14]; errors in parentheses): 7500 (660) M^−1

fluorescence perturbation by I^− [15]: Smaller, but notable, perturbations
fluorescence perturbation by SCN^− [15]: Smaller, but notable, perturbations
fluorescence response to Br [15]: only very small responses
fluorescence response to Cl [15]: only very small responses
emission quenching by HS^− ([15]; preliminary): ≈ 65%
water solubility (Water solubility): generally water soluble
SMILES: COCCOCCOCCOc1cc(COC(=O)c2cc(-n3nnc(C4=C5C(C)=CC(C)=[N+]5[B-](F)(F)n5c(C)cc(C)c54)c3I)cc(-n3nnc(C4=C5C(C)=CC(C)=[N+]5[B-](F)(F)n5c(C)cc(C)c54)c3I)c2)cc(OCCOCCOCCOC)c1OCCOCCOCCOC [XB-BDP-PEG]
